From patent publication US8044047B2, “5-substituted benzoxazines” (Hoffman-La Roche Inc., priority 2008, dated 2011)

The compounds below were run against T1, recombinant human 5-HT5A receptor (Homo sapiens, UniProt P47898) (assay: [3H]LSD radioligand binding assay, membranes of HEK-EBNA cells transiently expressing 5-HT5A receptors). Conditions: [3H]LSD approx. 1 nM, SPA beads, 120 min at room temperature; Ki from IC50 by the Cheng-Prussoff equation.
T1 construct: expressed in transfected cells; host or cells: HEK-EBNA (Human Embryonic Kidney-EBNA) cells, transient cDNA expression; membranes
Experimental: A [^3H]LSD radioligand binding assay was used to determine the affinity of the compounds for the recombinant human 5-HT5A receptor, in membranes from transiently (cDNA) expressed 5-HT5A receptors in Human Embryonic Kidney-EBNA (HEK-EBNA) cells. Assay buffer consisted of Tris (50 mM) buffer containing 1 mM EGTA, 10 mM MgCl2 (pH 7.4) and 10 μM pargyline. The binding assay was carried out in 96-well-plates in the presence of [^3H]LSD (approximately 1 nM), approximately 2 μg/well of membrane protein, and 0.5 mg of Ysi-poly-1-lysine SPA beads in a final volume of 200 μl of buffer. Non-specific binding was defined using methiothepin 2 μM. Compounds were tested at 10 concentrations. All assays were conducted in duplicate and repeated at least two times. Assay plates were incubated for 120 min at room temperature before centrifugation. Bound ligand was determined using a Packard Topcount scintillation counter. IC50 values were calculated using a non-linear curve fitting program and Ki values calculated using the Cheng-Prussoff equation.

T1 sequence (P47898 whole entry): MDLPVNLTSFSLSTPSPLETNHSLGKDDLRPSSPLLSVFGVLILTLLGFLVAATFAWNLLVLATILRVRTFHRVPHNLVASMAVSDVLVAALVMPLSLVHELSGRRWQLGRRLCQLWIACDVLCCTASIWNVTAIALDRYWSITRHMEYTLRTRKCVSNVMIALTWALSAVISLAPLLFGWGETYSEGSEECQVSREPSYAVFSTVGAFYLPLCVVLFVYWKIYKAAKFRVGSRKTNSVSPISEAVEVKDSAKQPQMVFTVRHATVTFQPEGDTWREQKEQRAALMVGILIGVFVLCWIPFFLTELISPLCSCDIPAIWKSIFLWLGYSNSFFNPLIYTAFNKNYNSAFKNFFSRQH

Row | Ki | Compound
1 | 27 nM | COc1cccc2c1C(NC1=Nc3cccc(N)c3CO1)CO2 (stereo not drawn) [Example 4, N^2-(4-Methoxy-2,3-dihydro-benzofuran-3-yl)-4H-benzo[d][1,3]oxazine-2,5-diamine]
2 | 106 nM | Brc1cccc2c1COC(N[C@@H]1CCc3ccccc31)=N2 [Example 9, (5-Bromo-4H-benzo[d][1,3]oxazin-2-yl)-(R)-indan-1-yl-amine]
3 | 5 nM | CS(=O)(=O)Nc1cccc2c1COC(N[C@@H]1CCc3ccccc31)=N2 [Example 10, N-[2-((R)-Indan-1-ylamino)-4H-benzo[d][1,3]oxazin-5-yl]-methanesulfonamide]
4 | 118 nM | N#Cc1cccc2c1COC(N[C@@H]1CCc3ccccc31)=N2 [Example 11, 2-((R)-Indan-1-ylamino)-4H-benzo[d][1,3]oxazine-5-carbonitrile]
5 | 57 nM | Clc1cccc2c1COC(N[C@@H]1CCc3ccccc31)=N2 [Example 1, (5-Chloro-4H-benzo[d][1,3]oxazin-2-yl)-(R)-indan-1-yl-amine]
6 | 10 nM | COc1cccc2c1C(NC1=Nc3cccc(NS(=O)(=O)c4cc(F)cc(F)c4)c3CO1)CO2 (stereo not drawn) [Example 7, 3,5-Difluoro-N-[2-(4-methoxy-2,3-dihydro-benzofuran-3-ylamino)-4H-benzo[d][1,3]oxazin-5-yl]-benzenesulfonamide]
7 | 2 nM | Clc1ccc(Nc2cccc3c2COC(N[C@@H]2CCc4ccccc42)=N3)cc1 [Example 15, N^5-(4-Chloro-phenyl)-N^2—(R)-indan-1-yl-4H-benzo[d][1,3]oxazine-2,5-diamine]
8 | 3 nM | Fc1ccc(Nc2cccc3c2COC(N[C@@H]2CCc4ccccc42)=N3)cc1 [Example 14, N^5-(4-Fluoro-phenyl)-N^2—(R)-indan-1-yl-4H-benzo[d][1,3]oxazine-2,5-diamine]
9 | 78 nM | Fc1ccc(-c2cccc3c2COC(N[C@@H]2CCc4ccccc42)=N3)cc1 [Example 13, [5-(4-Fluoro-phenyl)-4H-benzo[d][1,3]oxazin-2-yl]-(R)-indan-1-yl-amine]
10 | 3 nM | Nc1cccc2c1COC(N[C@@H]1CCc3ccccc31)=N2 [Example 3, (R)—N^2-Indan-1-yl-4H-benzo[d][1,3]oxazine-2,5-diamine]
11 | 169 nM | O=[N+]([O-])c1cccc2c1COC(N[C@@H]1CCc3ccccc31)=N2 [Example 2, (R)-Indan-1-yl-(5-nitro-4H-benzo[d][1,3]oxazin-2-yl)-amine]
12 | 2 nM | O=S(=O)(Nc1cccc2c1COC(N[C@@H]1CCc3ccccc31)=N2)C1CC1 [Example 8, Cyclopropanesulfonic acid [2-((R)-indan-1-ylamino)-4H-benzo[d][1,3]oxazin-5-yl]-amide]
13 | 13 nM | c1ccc2c(c1)CC[C@H]2NC1=Nc2cccc(C3CC3)c2CO1 [Example 12, (5-Cyclopropyl-4H-benzo[d][1,3]oxazin-2-yl)-(R)-indan-1-yl-amine]
14 | 2 nM | O=S(=O)(Nc1cccc2c1COC(N[C@@H]1CCc3ccccc31)=N2)c1cc(F)cc(F)c1 [Example 6, 3,5-Difluoro-N-[2-((R)-indan-1-ylamino)-4H-benzo[d][1,3]oxazin-5-yl]-benzenesulfonamide]
15 | 131 nM | O=C(Cc1ccc(Cl)cc1)Nc1cccc2c1COC(N[C@@H]1CCc3ccccc31)=N2 [Example 5, 2-(4-Chloro-phenyl)-N-[2-((R)-indan-1-ylamino)-4H-benzo[d][1,3]oxazin-5-yl]-acetamide]
